Results reported in the NIST ThermoML archive (doi:10.1007/s10765-009-0622-2).
± gives the expanded uncertainty stated by the source.

Legend:
[1] = 298.15 K; 101.33 kPa; Liquid
[2] = xn = mol fraction of the nth substance listed; details: 298.15 K, 101 kPa, Liquid

Cc1cccc(C)c1 [1,3-dimethylbenzene]
[1]
Details	mass density [kg/m3]	viscosity [mPa·s]
–	859.78 ± 0.49	0.583 ± 0.01

Cc1ccccc1C [1,2-dimethylbenzene]
[1]
Details	mass density [kg/m3]	viscosity [mPa·s]
–	874.89 ± 0.48	0.7506 ± 0.013

Cc1ccccc1C [1,2-dimethylbenzene] + CCCCCC
[2]
Details	mass density [kg/m3]	viscosity [mPa·s]
x2 = 0.052	863.09 ± 0.48	0.678 ± 0.012
x2 = 0.1413	842.86 ± 0.49	0.5944 ± 0.011
x2 = 0.2482	818.74 ± 0.51	0.5239 ± 0.0096
x2 = 0.2901	809.33 ± 0.52	0.493 ± 0.0091
x2 = 0.355	794.79 ± 0.53	0.462 ± 0.0087
x2 = 0.4004	784.66 ± 0.54	0.4425 ± 0.0084
x2 = 0.4815	766.65 ± 0.56	0.4126 ± 0.0079
x2 = 0.51	760.35 ± 0.56	0.4031 ± 0.0078
x2 = 0.5856	743.71 ± 0.58	0.3816 ± 0.0075
x2 = 0.6351	732.88 ± 0.59	0.3711 ± 0.0073
x2 = 0.6753	724.12 ± 0.6	0.3632 ± 0.0072
x2 = 0.7858	700.23 ± 0.63	0.3344 ± 0.0067
x2 = 0.8317	690.38 ± 0.64	0.3264 ± 0.0066
x2 = 0.9014	675.52 ± 0.66	0.314 ± 0.0064

CCCCCC [hexane]
[1]
Details	mass density [kg/m3]	viscosity [mPa·s]
–	654.7 ± 0.7	0.2973 ± 0.0062

CCc1ccccc1 [ethylbenzene]
[1]
Details	mass density [kg/m3]	viscosity [mPa·s]
–	862.37 ± 0.49	0.6369 ± 0.011

Cc1ccc(C)cc1 [1,4-dimethylbenzene]
[1]
Details	mass density [kg/m3]	viscosity [mPa·s]
–	856.51 ± 0.5	0.5999 ± 0.011

Cc1ccc(C)cc1 [1,4-dimethylbenzene] + CCCCCC
[2]
Details	mass density [kg/m3]	viscosity [mPa·s]
x2 = 0.0423	847.8 ± 0.5	0.566 ± 0.01
x2 = 0.1073	834.45 ± 0.51	0.5235 ± 0.0096
x2 = 0.2137	812.6 ± 0.52	0.4702 ± 0.0088
x2 = 0.2956	795.81 ± 0.53	0.4378 ± 0.0083
x2 = 0.3769	779.21 ± 0.55	0.4119 ± 0.0079
x2 = 0.4201	770.42 ± 0.56	0.3998 ± 0.0077
x2 = 0.5355	747.03 ± 0.58	0.3717 ± 0.0073
x2 = 0.562	741.69 ± 0.58	0.3654 ± 0.0072
x2 = 0.6427	725.47 ± 0.6	0.3502 ± 0.007
x2 = 0.7455	704.95 ± 0.62	0.3324 ± 0.0067
x2 = 0.7909	695.94 ± 0.63	0.3256 ± 0.0066
x2 = 0.8792	678.48 ± 0.66	0.313 ± 0.0064
x2 = 0.9599	662.62 ± 0.68	0.3024 ± 0.0063

CCc1ccccc1 [ethylbenzene] + CCCCCC
[2]
Details	viscosity [mPa·s]
x2 = 0.0437	0.6071 ± 0.011
x2 = 0.0884	0.5751 ± 0.01
x2 = 0.183	0.5169 ± 0.0095
x2 = 0.2262	0.4791 ± 0.0089
x2 = 0.2774	0.4672 ± 0.0088
x2 = 0.3283	0.445 ± 0.0084
x2 = 0.3784	0.4234 ± 0.0081
x2 = 0.4359	0.4047 ± 0.0078
x2 = 0.488	0.3902 ± 0.0076
x2 = 0.5429	0.3761 ± 0.0074
x2 = 0.5916	0.3654 ± 0.0072
x2 = 0.6534	0.3527 ± 0.007
x2 = 0.705	0.3426 ± 0.0069
x2 = 0.7644	0.3326 ± 0.0067
x2 = 0.809	0.325 ± 0.0066
x2 = 0.8882	0.313 ± 0.0064
x2 = 0.9478	0.3046 ± 0.0063

Cc1cccc(C)c1 [1,3-dimethylbenzene] + CCCCCC
[2]
Details	viscosity [mPa·s]
x2 = 0.1329	0.4984 ± 0.0093
x2 = 0.1519	0.4896 ± 0.0091
x2 = 0.2717	0.4418 ± 0.0084
x2 = 0.339	0.4221 ± 0.0081
x2 = 0.4303	0.3978 ± 0.0077
x2 = 0.448	0.3935 ± 0.0077
x2 = 0.5734	0.3652 ± 0.0072
x2 = 0.643	0.3513 ± 0.007
x2 = 0.6663	0.3473 ± 0.007
x2 = 0.719	0.3389 ± 0.0068
x2 = 0.8049	0.3238 ± 0.0066
x2 = 0.873	0.3175 ± 0.0065
x2 = 0.9278	0.3115 ± 0.0064
